Test results taken from PubChem BioAssay (NCI).
“And” between values parts separate entries of the source, which are not always exact repeats. Equal values may be shown once.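 Each compound was tested at five concentrations against cells in 96-well plates for 48 hours. The concentration for 50% growth inhibition is given as GI50. TGI: concentration producing complete growth inhibition.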

Columns and labels:
Test in all cases: DTP human tumour cell line panel, 48 h
SF-268 CNS = test system: SF-268 CNS
EKVX NSCLC = test system: EKVX NSCLC
SF-295 CNS = test system: SF-295 CNS
U251 CNS = test system: U251 CNS
ACHN renal = test system: ACHN renal
TK-10 renal = test system: TK-10 renal
HS 578T breast = test system: HS 578T breast
SK-MEL-28 melanoma = test system: SK-MEL-28 melanoma
M14 melanoma = test system: M14 melanoma
UO-31 renal = test system: UO-31 renal

Structure (SMILES) | GI50 (SF-268 CNS) | TGI (SF-268 CNS) | GI50 (EKVX NSCLC) [µM] | TGI (EKVX NSCLC) | GI50 (SF-295 CNS) | TGI (SF-295 CNS) | GI50 (U251 CNS) | TGI (U251 CNS) | GI50 (ACHN renal) [µM] | TGI (ACHN renal) | GI50 (TK-10 renal) [µM] | TGI (TK-10 renal) | GI50 (HS 578T breast) | TGI (HS 578T breast) | GI50 (SK-MEL-28 melanoma) | TGI (SK-MEL-28 melanoma) | GI50 (M14 melanoma) | TGI (M14 melanoma) | GI50 (UO-31 renal) | TGI (UO-31 renal)
C[C@]12CCc3sc(Nc4ccc(OC(F)(F)F)cc4)nc3C1=CC[C@@H]1[C@@H]2CC[C@]2(C)C(=O)CC[C@@H]12 | 3.01 µM | 12.3 µM | 2.63 | 17.4 µM | 0.7 µM | 2.44 µM | 1.09 µM | 3.26 µM | 3.27 | 10.8 µM | 4.82 | 32 µM | 1.48 µM | 5.22 µM | 1.88 µM | 7.98 µM | 3.29 µM | 8.72 µM | 2.06 µM | 4.73 µM
CCOc1cccc(/C=N/NC(=O)c2cccc(Nc3ccnc(C(F)(F)F)c3)c2)c1O | 0.873 µM | > 45.3 µM | 1.55 | > 64.5 µM | 2.4 µM | 27.9 µM | 0.886 µM | > 47.1 µM | 0.699 | > 50.3 µM | 1.57 | 83.1 µM | 5.53 µM | 72.7 µM | 2.31 µM | 36.6 µM | 1.22 µM | 7.88 µM | 0.717 µM | 26.2 µM
CCCOC(=O)N[C@H]1CCc2c(Cl)c(OC)c(OC)c(OC)c2-c2ccc(SC)c(=O)cc21 | < 0.0117 µM | 17.4 µM | < 0.01 | > 100 µM | < 0.01 µM | – | < 0.01 µM | 12.2 µM | < 0.01 | 23.6 µM | 5.04 | > 88.4 µM | < 0.01 µM | 20.6 µM | 2.02 µM | 23.5 µM | < 0.01 µM | 4.47 µM | 0.0747 µM | 27.9 µM
CN(C)Cc1cc(C(F)(F)F)ccc1C(O)(c1ccccc1)c1ccccc1 | – | 34.3 µM | – | 29.6 µM | – | 50 µM | – | 24.9 µM | – | 29.9 µM | – | 31 µM | – | > 100 µM | – | 31 µM | – | 25.3 µM | – | 28.5 µM
C=C(C)C1CC2(C)C(C)CC(O)CC2C(OC(=O)C=C(C)C)C1O (configuration not stated) | – | > 100 µM | – | > 100 µM | – | 84.3 µM | – | > 100 µM | – | 52 µM | – | > 100 µM | – | > 100 µM | – | > 100 µM | – | > 100 µM | – | 74.4 µM
Cc1ccc(S(=O)(=O)N=Nc2c(O)[nH]c3cc(O)c(C(=O)O)cc23)cc1 | – | > 100 µM | – | > 100 µM | – | > 100 µM | – | > 100 µM | – | > 100 µM | – | > 100 µM | – | > 100 µM | – | > 100 µM | – | > 100 µM | – | > 100 µM
O=C(O)CSCCc1ccccc1 | – | > 100 µM | – | > 100 µM | – | > 100 µM | – | > 100 µM | – | > 100 µM | – | > 100 µM | – | > 100 µM | – | > 100 µM | – | > 100 µM | – | > 100 µM
CSC(SC)(C(=O)O)c1cc(-c2c(Cl)cccc2Cl)no1 | – | > 100 µM | – | > 100 µM | – | > 100 µM | – | > 100 µM | – | > 100 µM | – | > 100 µM | – | > 100 µM | – | > 100 µM | – | > 100 µM | – | 92.2 µM
CNC(=O)OCc1c(COC(=O)NC)c(-c2ccc(-c3ccccc3)cc2)n(C)c1C | – | 5.32 µM | – | 11.1 µM | – | 10.8 µM | – | 10.9 µM | – | 4.27 µM | – | 15.4 µM | – | > 68.2 µM | – | 28.7 µM | – | 6.84 µM | – | 3.1 µM
COc1ccc2c(c1)NC1=C(C(=O)OC1)C2c1cc(OC)c(OC)c(OC)c1 (configuration not stated) | < 0.01 µM | > 100 µM | 12 | > 100 µM | < 0.01 µM | > 54.5 µM | < 0.01 µM | > 100 µM | < 0.01 | > 100 µM | < 0.01 | > 100 µM | < 0.01 µM | > 100 µM | – | > 100 µM | < 0.01 µM | > 100 µM | – | > 100 µM
Cc1cn(C2CC(OC(=O)c3ccc(Cl)cc3)C(COC(=O)c3ccc(Cl)cc3)O2)c(=O)[nH]c1=O (configuration not stated) | – | > 100 µM | – | > 100 µM | – | > 100 µM | – | > 100 µM | – | > 100 µM | – | > 100 µM | – | > 100 µM | – | > 100 µM | – | > 100 µM | – | > 100 µM
Cc1nnc(-c2ccc(C)c(-c3ccc(C(=O)Nc4cccc(C#N)c4)cc3)c2)o1 | > 25 µM | > 25 µM | > 25 | > 25 µM | > 25 µM | > 25 µM | > 25 µM | > 25 µM | > 25 | > 25 µM | > 25 | > 25 µM | > 25 µM | > 25 µM | > 25 µM | > 25 µM | > 25 µM | > 25 µM | > 25 µM | > 25 µM
C=CC(=O)N1CCC(Oc2cc3c(Nc4ccc(Cl)c(Cl)c4F)ncnc3cc2OC)CC1 | 0.743 µM and 0.466 µM | 19.4 µM and > 7.14 µM | < 0.001 | 17.2 µM and > 10 µM | 3.78 µM and 2.21 µM | 17.3 µM and > 10 µM | 7.13 µM and 3.33 µM | 27 µM and > 10 µM | < 0.001 | 14.9 µM and > 10 µM | < 0.001 | 6.61 µM and 4.43 µM | 3.61 µM and 1.74 µM | 44.1 µM and 8.16 µM | 11.6 µM and > 9.46 µM | 25.8 µM and > 10 µM | 4 µM and 3.1 µM | 20.2 µM and > 10 µM | 0.0493 µM and 0.0566 µM | 4.75 µM and 3.72 µM
NCCCNCCS | – | > 100 µM | – | > 100 µM | – | > 100 µM | – | > 100 µM | – | > 100 µM | – | > 100 µM | – | > 100 µM | – | > 100 µM | – | > 100 µM | – | > 100 µM
Cc1ccc(C2=C(c3ccc(C)cc3)C3(c4ccc(C)cc4)C4C(=O)OC(=O)C4C2(c2ccc(C)cc2)S3=O)cc1 (configuration not stated) | 38.5 µM | > 100 µM | 42 | > 100 µM | 13.1 µM | 37.7 µM | 6.31 µM | 24.9 µM | 15.8 | 83.3 µM | 38.8 | > 100 µM | 21.3 µM | > 100 µM | 28.8 µM | 96.1 µM | 9.7 µM | 32.8 µM | 34.3 µM | > 100 µM
